Results: patent US11814372B2, “Agonists of EPHA and their uses” (CASE WESTERN RESERVE UNIVERSITY, priority 2017, dated 2023)
“Also recorded” adds a separate entry of the source.

Legend:
EphA4 = molecular target: T1, EphA4 (Homo sapiens, UniProt P54764); experiment: Eph receptor activation in HEK 293 cells overexpressing EphA4; format: cell-based; conditions: HEK 293 cells overexpressing EphA4, 60 minutes
T1 construct: expressed in transfected cells; host or cells: HEK 293
Method: Cells were plated in 24-well dishes at a density of 100,000 cells/well and grown for 24 hours prior to stimulation with appropriate compounds and ephrins for the given amounts of time. Compounds were prepared in DMSO at 500 times the final concentrations and 0.2% DMSO was used as vehicle control. Following treatment, cells were lysed directly in SDS Gel Loading Buffer and immunoblotted as described previously. […] For this purpose, HEK 293 cell lines overexpressing EphA1, EphA2, EphA3, EphA4, and EphB3 kinases were utilized.

PC3-DAB2IP KD cells = experiment: In vivo metastasis assay, orthotopic PC3-DAB2IP KD prostate xenograft
Method: PC-3 cells (from ATCC) engineered to express both GFP and DAB2IP shRNA were characterized previously. Cells were suspended in serum free medium and 2,000 cells injected directly into the prostate glands of 7 week old NCr athymic nu/nu mice. Three days after injection, mice were divided into two groups, one receiving vehicle alone (5% DMSO/10% Cremophor/PBS) and another 50 mg/kg doxazosin via intraperitoneal injection daily for 10 days. Mice were sacrificed 14 days later and intact primary tumors were imaged under a UV light box with a Digital camera. Lungs were dissected into separate lobes and GFP-expressing metastases were imaged using an inverted fluorescent microscope (Leica). Metastases were enumerated in the two largest lung lobes and placed into size categories based upon their diameters, measured in number of cells (1-10 cells). Total metastatic burden was calculated in each mouse using the following equation: [burden=Σ (# of foci×focus diameter)].
Historically, studies of prostate cancer metastasis in the preclinical setting have been hampered by the lack of human cell lines that can produce significant metastasis in a reproducible manner. […] We took advantage of this newly established model system to test how doxazosin can affect metastasis of prostate cancer. To this end, PC3-DAB2IP KD cells were injected orthotopically into the prostate glands of nude mice. Three days later, recipient mice were subject to systemic treatment by daily i.p. injection of either vehicle control, or 50 mg/kg doxazosin for 10 days. Since these cells also expressed green fluorescent protein (GFP), freshly dissected primary tumors could be readily visualized in a GFP light box (FIG. 7A top panels), and distal metastases to lungs and lymph nodes could be observed and quantified under a fluorescent microscope (FIG. 7A lower panels).
Next, we determined whether doxazosin treatment might impact overall survival. Nude mice orthotopically implanted with the PC3-DAP2IP KD cells were treated for 10 days with either doxazosin, or vehicle control and monitored for survival.

ERK and Akt = ERK and Akt inhibition in LK133A-Vec and LK133A-A2 liver epithelial cells (immunoblot); format: cell-based, mice
Method: (§1) Cells were plated in 24-well dishes at a density of 100,000 cells/well and grown for 24 hours prior to stimulation with appropriate compounds and ephrins for the given amounts of time. Compounds were prepared in DMSO at 500 times the final concentrations and 0.2% DMSO was used as vehicle control. Following treatment, cells were lysed directly in SDS Gel Loading Buffer and immunoblotted as described previously. Immunoprecipitation and immunofluorescence staining was performed as described. For immunoprecipitation, 300,000 cells/well were plated in 6-well dishes and lysed in modified RIPA Buffer (20 mM Tris-HCl pH 7.4, 20 mM NaF, 150 mM NaCl, 10% glycerol, 0.1% SDS, 0.5% DCA, 2 mM EDTA, 1% Triton X-100) following treatment. Either […] of ephrin-A1-Fc, or […] of EphA2 mouse monoclonal antibody (Clone D7, Millipore) were used, and mouse IgG was used as a negative control for EphA2 IP.
To address this question, we utilized an immortalized liver epithelial cell line, LK133A, isolated from a hepatoma induced by DEN in EphA2 knockout mice. Retroviral vector was used to restore EphA2 expression in these cells (LK133A-A2), and cells transduced with an empty vector were used as control (LK133AVec).

EphA2 = EphA2 (Homo sapiens, UniProt P29317); experiment: EphA2 receptor internalization in U373-A2 glioma cells (immunofluorescence); format: cell-based; design: expressed in transfected cells; host or cells: MDA-MB-231 (MDA-231-A2), HEK 293 (HEK 293-A2), A172 (A172-A2), U373 (U373-A2); conditions: 60 min, 50 μM DZ or 1 μg/ml ephrin-A1-Fc
Method: as §1
Similar to other receptor tyrosine kinases, activation of the EphA2 receptor by its ligand, ephrin-A1, results in receptor internalization and eventual degradation. […] This was first performed using the U373 glioma cell line engineered to overexpress EphA2.

[1] = nude mice, 50 mg/kg i.p. daily for 10 days

T1 sequence (P54764 20-986, species assumed): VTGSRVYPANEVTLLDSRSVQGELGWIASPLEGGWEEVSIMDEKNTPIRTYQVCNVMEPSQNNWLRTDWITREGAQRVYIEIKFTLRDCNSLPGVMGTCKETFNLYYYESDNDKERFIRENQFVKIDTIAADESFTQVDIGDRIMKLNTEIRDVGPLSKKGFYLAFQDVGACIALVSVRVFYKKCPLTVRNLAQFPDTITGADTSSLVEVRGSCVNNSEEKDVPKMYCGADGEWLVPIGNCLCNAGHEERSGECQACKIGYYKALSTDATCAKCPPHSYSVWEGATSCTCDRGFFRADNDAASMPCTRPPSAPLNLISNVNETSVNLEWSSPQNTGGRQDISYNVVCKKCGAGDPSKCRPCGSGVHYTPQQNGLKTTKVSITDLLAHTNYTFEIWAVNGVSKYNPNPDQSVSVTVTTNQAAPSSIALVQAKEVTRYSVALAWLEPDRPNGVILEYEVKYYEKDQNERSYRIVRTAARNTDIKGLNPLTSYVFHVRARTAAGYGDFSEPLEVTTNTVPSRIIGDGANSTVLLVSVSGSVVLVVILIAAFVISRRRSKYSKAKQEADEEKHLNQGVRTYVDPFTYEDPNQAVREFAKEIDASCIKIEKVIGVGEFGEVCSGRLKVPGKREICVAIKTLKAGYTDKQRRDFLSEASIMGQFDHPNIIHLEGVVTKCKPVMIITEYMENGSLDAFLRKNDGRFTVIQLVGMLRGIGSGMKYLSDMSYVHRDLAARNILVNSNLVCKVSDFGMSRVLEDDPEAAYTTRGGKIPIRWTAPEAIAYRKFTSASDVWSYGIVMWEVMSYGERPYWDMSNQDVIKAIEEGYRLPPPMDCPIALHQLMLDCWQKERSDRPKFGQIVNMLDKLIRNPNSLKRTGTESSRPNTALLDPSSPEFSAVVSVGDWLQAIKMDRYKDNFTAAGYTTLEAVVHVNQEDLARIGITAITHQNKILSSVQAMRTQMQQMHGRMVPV
EphA2, sequence (P29317 24-976): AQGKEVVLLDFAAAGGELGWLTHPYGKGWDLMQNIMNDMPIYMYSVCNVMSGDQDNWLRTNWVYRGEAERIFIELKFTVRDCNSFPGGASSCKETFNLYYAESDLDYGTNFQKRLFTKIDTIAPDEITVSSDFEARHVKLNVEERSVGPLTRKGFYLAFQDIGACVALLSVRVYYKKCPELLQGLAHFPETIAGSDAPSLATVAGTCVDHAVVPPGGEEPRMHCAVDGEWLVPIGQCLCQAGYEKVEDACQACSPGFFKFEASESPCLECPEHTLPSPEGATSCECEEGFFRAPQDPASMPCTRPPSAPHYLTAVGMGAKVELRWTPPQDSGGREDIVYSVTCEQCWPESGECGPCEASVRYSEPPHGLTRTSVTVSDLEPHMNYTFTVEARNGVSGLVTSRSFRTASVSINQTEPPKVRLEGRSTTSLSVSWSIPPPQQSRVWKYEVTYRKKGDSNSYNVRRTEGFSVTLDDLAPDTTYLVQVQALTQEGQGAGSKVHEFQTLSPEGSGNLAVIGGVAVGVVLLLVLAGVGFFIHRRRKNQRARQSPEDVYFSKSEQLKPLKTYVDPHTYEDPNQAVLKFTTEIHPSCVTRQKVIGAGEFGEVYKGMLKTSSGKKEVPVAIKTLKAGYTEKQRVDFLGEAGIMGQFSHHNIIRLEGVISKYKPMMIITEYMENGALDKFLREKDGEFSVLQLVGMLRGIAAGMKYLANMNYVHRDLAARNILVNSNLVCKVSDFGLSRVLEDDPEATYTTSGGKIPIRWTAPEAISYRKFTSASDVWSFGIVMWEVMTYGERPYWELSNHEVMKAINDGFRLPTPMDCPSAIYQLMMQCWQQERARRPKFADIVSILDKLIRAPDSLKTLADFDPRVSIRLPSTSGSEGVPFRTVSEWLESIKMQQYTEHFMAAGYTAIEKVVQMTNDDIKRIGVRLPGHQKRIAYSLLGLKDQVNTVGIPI

SMILES: COc1cc2nc(N3CCN(C(=O)C4COc5ccccc5O4)CC3)nc(N)c2cc1OC (stereo not drawn) [doxazosin]
- EphA4 kinase activation, Eph receptor panel (EphA4): activated both EphA2 and EphA4 kinases
- overall survival (PC3-DAB2IP KD cells; at 27 days after cell implantation, treated for 10 days, vehicle 30%): 70%
- behavioral abnormalities (PC3-DAB2IP KD cells; [1]): nor were there any signs of behavioral abnormalities
- body weight compared with vehicle control (PC3-DAB2IP KD cells; [1]): no changes in body weight
- number of lung metastases compared to vehicle control (PC3-DAB2IP KD cells; [1]): significant reduction in the number of lung metastases
- reduction in primary tumor sizes (PC3-DAB2IP KD cells; [1]): the difference was not statistically significant
- sizes of lung metastases compared to vehicle-treated mice (PC3-DAB2IP KD cells; [1]): significantly smaller
- total metastatic burden (numbers and sizes of metastases) (PC3-DAB2IP KD cells; [1]): even more significantly reduced
- tumor cell dissemination to local lymph nodes (PC3-DAB2IP KD cells; [1]): reduced, but not to a significant extent
- ERK and Akt inhibition after reintroduction of EphA2 expression (ERK and Akt; LK133A-A2 cells): restored ERK and Akt inhibition
- inhibition of ERK and Akt activities in the absence of EphA2 (ERK and Akt; LK133A-Vec cells (EphA2 knockout, empty vector)): neither doxazosin nor ephrin-A1-Fc was able to inhibit ERK and Akt activities; also recorded: notable increase in ERK and Akt activation
- EphA2 internalization (EphA2): significant EphA2 internalization
